The values that follow come from PMC8169660, “Flavin-dependent halogenases catalyze enantioselective olefin halocyclization” (Nature Communications, 2021).

For this test, the target named is T1, RebH variant 4V + S (Lentzea aerocolonigenes, UniProt Q8KHZ8, F111S/N470S, form not given).
T1 construct: evolved RebH variant 4V + S; pET28b in E. coli BL21(DE3) + pGro7, Ni-NTA purified (His-tagged)
The experiment in a line: initial rates of bromolactonization, product 1a by UPLC. It counts as biochemical. As to conditions: NaBr (5 eq), NAD and FAD 100 uM, MBP-RebF 2.5 uM, glucose dehydrogenase, glucose 20 mM; 4V + S 20 uM; room temperature.

T1 sequence (Q8KHZ8 whole entry F111S/N470S, form open): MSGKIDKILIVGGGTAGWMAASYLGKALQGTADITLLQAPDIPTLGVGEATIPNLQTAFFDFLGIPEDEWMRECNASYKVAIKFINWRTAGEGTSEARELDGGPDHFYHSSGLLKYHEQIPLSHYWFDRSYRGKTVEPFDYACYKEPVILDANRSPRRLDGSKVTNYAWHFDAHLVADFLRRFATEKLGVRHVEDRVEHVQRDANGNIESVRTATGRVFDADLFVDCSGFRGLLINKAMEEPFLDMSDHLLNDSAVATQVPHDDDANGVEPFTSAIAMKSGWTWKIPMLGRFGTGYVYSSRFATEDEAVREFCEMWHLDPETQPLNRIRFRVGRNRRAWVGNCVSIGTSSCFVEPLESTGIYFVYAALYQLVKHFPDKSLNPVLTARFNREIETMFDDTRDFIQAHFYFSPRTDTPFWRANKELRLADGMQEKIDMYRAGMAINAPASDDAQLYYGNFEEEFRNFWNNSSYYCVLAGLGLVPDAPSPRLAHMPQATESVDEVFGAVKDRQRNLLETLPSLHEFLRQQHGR

For the molecule `C=C(CCC(=O)O)c1ccc(OC)cc1` [compound 1, 4-methoxyphenyl-4-pentenoic acid], the Michaelis-Menten constant (Km) is 470 µM.

For orientation: Km means the concentration of substrate that gives half-maximal velocity.
